Data from PubChem BioAssay AID1259407 (Chemical Carcinogenesis Research Information System (CCRIS), 2018).
The source made the active and inactive calls. The rule behind the calls is not given here.

Tested on: CCRIS mutagenicity, Ames/micronucleus/aberration tests
Experiment: CCRIS mutagenicity studies

**Q.** What does the source list for `ClC(Cl)(Cl)Cl`?
**A.** mutagenic call (End Point: IN VITRO CHROMOSOMAL ABERRATIONS, Test System: CHO-LB CELLS, Metabolic Activation: NONE): inactive; negative; mutagenic call (End Point: IN VITRO CHROMOSOMAL ABERRATIONS, Test System: CHO-LB CELLS, Metabolic Activation: RAT, LIVER, S-9, AROCLOR 1254): inactive; negative; mutagenic call (End Point: IN VIVO MICRONUCLEUS, Test System: BONE MARROW POLYCHROMATIC ERYTHROCYTES, Species: MOUSE, Strain/Sex: MALE, Route: IP INJECTION): active; positive; mutagenic call (End Point: In vitro chromosomal aberrations, Test System: Chinese hamster lung (CHL/IU) cells, Metabolic Activation: Rat, Liver, S9, Phenobarbital and 5,6-benzoflavone): inactive; negative; mutagenic call (Test System: AMES SALMONELLA TYPHIMURIUM, Strain/Indicator: TA97, Metabolic Activation: HAMSTER, LIVER, S-9, AROCLOR 1254 (10%), Method: PREINCUBATION): inactive; negative; mutagenic call (Test System: AMES SALMONELLA TYPHIMURIUM, Strain/Indicator: TA97, Metabolic Activation: HAMSTER, LIVER, S-9, AROCLOR 1254 (30%), Method: PREINCUBATION): inactive; negative; mutagenic call (Test System: AMES SALMONELLA TYPHIMURIUM, Strain/Indicator: TA97, Metabolic Activation: NONE, Method: PREINCUBATION): inactive; negative; mutagenic call (Test System: AMES SALMONELLA TYPHIMURIUM, Strain/Indicator: TA97, Metabolic Activation: NONE, Method: STANDARD PLATE): inactive; negative; mutagenic call (Test System: AMES SALMONELLA TYPHIMURIUM, Strain/Indicator: TA97, Metabolic Activation: RAT, LIVER, S-9, AROCLOR 1254 (10%), Method: PREINCUBATION): inactive; negative; mutagenic call (Test System: AMES SALMONELLA TYPHIMURIUM, Strain/Indicator: TA97, Metabolic Activation: RAT, LIVER, S-9, AROCLOR 1254 (30%), Method: PREINCUBATION): inactive; negative; mutagenic call (Test System: AMES SALMONELLA TYPHIMURIUM, Strain/Indicator: TA97, Metabolic Activation: RAT, LIVER, S-9, AROCLOR 1254, Method: STANDARD PLATE): inactive; negative; mutagenic call (Test System: AMES SALMONELLA TYPHIMURIUM, Strain/Indicator: TA98, Metabolic Activation: HAMSTER, LIVER, S-9, AROCLOR 1254 (10%), Method: PREINCUBATION): inactive; negative; mutagenic call (Test System: AMES SALMONELLA TYPHIMURIUM, Strain/Indicator: TA98, Metabolic Activation: HAMSTER, LIVER, S-9, AROCLOR 1254 (30%), Method: PREINCUBATION): inactive; negative; mutagenic call (Test System: AMES SALMONELLA TYPHIMURIUM, Strain/Indicator: TA98, Metabolic Activation: NONE, Method: GAS EXPOSURE): active; positive; mutagenic call (Test System: AMES SALMONELLA TYPHIMURIUM, Strain/Indicator: TA98, Metabolic Activation: NONE, Method: PREINCUBATION): inactive; negative; mutagenic call (Test System: AMES SALMONELLA TYPHIMURIUM, Strain/Indicator: TA98, Metabolic Activation: RAT LIVER S-9, PHENOBARBITOL AND 5,6-BENZOFLAVONE, Method: GAS EXPOSURE): inactive; negative; mutagenic call (Test System: AMES SALMONELLA TYPHIMURIUM, Strain/Indicator: TA98, Metabolic Activation: RAT, LIVER, S-9, AROCLOR 1254 (10%), Method: PREINCUBATION): inactive; negative; mutagenic call (Test System: AMES SALMONELLA TYPHIMURIUM, Strain/Indicator: TA98, Metabolic Activation: RAT, LIVER, S-9, AROCLOR 1254 (30%), Method: PREINCUBATION): inactive; negative; mutagenic call (Test System: AMES SALMONELLA TYPHIMURIUM, Strain/Indicator: TA98, Metabolic Activation: RAT, LIVER, S-9, AROCLOR 1254, Method: STANDARD PLATE): inactive; negative; mutagenic call (Test System: AMES SALMONELLA TYPHIMURIUM, Strain/Indicator: TA100, Metabolic Activation: HAMSTER, LIVER, S-9, AROCLOR 1254 (10%), Method: PREINCUBATION): inactive; negative; mutagenic call (Test System: AMES SALMONELLA TYPHIMURIUM, Strain/Indicator: TA100, Metabolic Activation: HAMSTER, LIVER, S-9, AROCLOR 1254 (30%), Method: PREINCUBATION): inactive; negative; mutagenic call (Test System: AMES SALMONELLA TYPHIMURIUM, Strain/Indicator: TA100, Metabolic Activation: NONE, Method: PREINCUBATION): inactive; negative; mutagenic call (Test System: AMES SALMONELLA TYPHIMURIUM, Strain/Indicator: TA100, Metabolic Activation: RAT, LIVER, S-9, AROCLOR 1254 (10%), Method: PREINCUBATION): inactive; negative; mutagenic call (Test System: AMES SALMONELLA TYPHIMURIUM, Strain/Indicator: TA100, Metabolic Activation: RAT, LIVER, S-9, AROCLOR 1254 (30%), Method: PREINCUBATION): inactive; negative; mutagenic call (Test System: AMES SALMONELLA TYPHIMURIUM, Strain/Indicator: TA1535, Metabolic Activation: HAMSTER, LIVER, S-9, AROCLOR 1254 (10%), Method: PREINCUBATION): inactive; negative; mutagenic call (Test System: AMES SALMONELLA TYPHIMURIUM, Strain/Indicator: TA1535, Metabolic Activation: HAMSTER, LIVER, S-9, AROCLOR 1254 (30%), Method: PREINCUBATION): inactive; negative; mutagenic call (Test System: AMES SALMONELLA TYPHIMURIUM, Strain/Indicator: TA1535, Metabolic Activation: NONE, Method: PREINCUBATION): inactive; negative; mutagenic call (Test System: AMES SALMONELLA TYPHIMURIUM, Strain/Indicator: TA1535, Metabolic Activation: NONE, Method: STANDARD PLATE): inactive; negative; mutagenic call (Test System: AMES SALMONELLA TYPHIMURIUM, Strain/Indicator: TA1535, Metabolic Activation: RAT, LIVER, S-9, AROCLOR 1254 (10%), Method: PREINCUBATION): inactive; negative; mutagenic call (Test System: AMES SALMONELLA TYPHIMURIUM, Strain/Indicator: TA1535, Metabolic Activation: RAT, LIVER, S-9, AROCLOR 1254 (30%), Method: PREINCUBATION): inactive; negative; mutagenic call (Test System: AMES SALMONELLA TYPHIMURIUM, Strain/Indicator: TA1535, Metabolic Activation: RAT, LIVER, S-9, AROCLOR 1254, Method: STANDARD PLATE): active; positive; mutagenic call (Test System: AMES SALMONELLA TYPHIMURIUM, Strain/Indicator: TA1537, Metabolic Activation: HAMSTER, LIVER, S-9, AROCLOR 1254 (10 OR 30%), Method: PREINCUBATION): inactive; negative; mutagenic call (Test System: AMES SALMONELLA TYPHIMURIUM, Strain/Indicator: TA1537, Metabolic Activation: NONE, Method: PREINCUBATION): inactive; negative; mutagenic call (Test System: AMES SALMONELLA TYPHIMURIUM, Strain/Indicator: TA1537, Metabolic Activation: NONE, Method: STANDARD PLATE): active; positive; mutagenic call (Test System: AMES SALMONELLA TYPHIMURIUM, Strain/Indicator: TA1537, Metabolic Activation: RAT, LIVER, S-9, AROCLOR 1254 (10 OR 30%), Method: PREINCUBATION): inactive; negative; mutagenic call (Test System: Ames Salmonella typhimurium, Strain/Indicator: TA98, Metabolic Activation: None, Method: Gas exposure method): active; positive; mutagenic call (Test System: Ames Salmonella typhimurium, Strain/Indicator: TA98, Metabolic Activation: Rat, Liver, S9, Sodium phenobarbital and 5,6-benzoflavone (10%), Method: Gas exposure method): inactive; negative; mutagenic call (Test System: Ames Salmonella typhimurium, Strain/Indicator: TA100, Metabolic Activation: None, Method: Gas exposure method): inactive; negative; mutagenic call (Test System: Ames Salmonella typhimurium, Strain/Indicator: TA100, Metabolic Activation: Rat, Liver, S9, Sodium phenobarbital and 5,6-benzoflavone (10%), Method: Gas exposure method): inactive; negative; mutagenic call (Test System: Ames Salmonella typhimurium, Strain/Indicator: TA1535, Metabolic Activation: None, Method: Gas exposure method): inactive; negative; mutagenic call (Test System: Ames Salmonella typhimurium, Strain/Indicator: TA1535, Metabolic Activation: Rat, Liver, S9, Sodium phenobarbital and 5,6-benzoflavone (10%), Method: Gas exposure method): inactive; negative; mutagenic call (Test System: Ames Salmonella typhimurium, Strain/Indicator: TA1537, Metabolic Activation: None, Method: Gas exposure method): inactive; negative; mutagenic call (Test System: Ames Salmonella typhimurium, Strain/Indicator: TA1537, Metabolic Activation: Rat, Liver, S9, Sodium phenobarbital and 5,6-benzoflavone (10%), Method: Gas exposure method): inactive; negative; mutagenic call (Test System: E. COLI, Strain/Indicator: WP2UVRA/PKM101, Metabolic Activation: NONE, Method: GAS EXPOSURE): active; positive; mutagenic call (Test System: E. COLI, Strain/Indicator: WP2UVRA/PKM101, Metabolic Activation: RAT LIVER S-9, PHENOBARBITOL AND 5,6-BENZOFLAVONE, GLUTATHIONE-SUPPLEMENTED, Method: GAS EXPOSURE): active; positive; mutagenic call (Test System: E. COLI, Strain/Indicator: WP2UVRA/PKM101, Metabolic Activation: RAT LIVER S-9, PHENOBARBITOL AND 5,6-BENZOFLAVONE, Method: GAS EXPOSURE): active; positive; mutagenic call (Test System: MOUSE LYMPHOMA, Strain/Indicator: L5178Y (TK+/TK-), Metabolic Activation: RAT, LIVER, S-9, AROCLOR 1254, Method: SUSPENSION/PLATE): inactive; negative; mutagenic call (Test System: UDS RAT HEPATOCYTES, Strain/Indicator: BROMODEOXYURIDINE INCORP, Metabolic Activation: NONE, Method: FLOW CYTOMETRIC ANALYSIS): inactive; negative; mutagenic call (Test System: UDS RAT HEPATOCYTES, Strain/Indicator: THY INCORP, Metabolic Activation: NONE, Method: AUTORADIOGRAPHY): inactive; negative

**Q.** For `COc1c(N2C[C@@H]3CCCN[C@@H]3C2)c(F)cc2c(=O)c(C(=O)O)cn(C3CC3)c12`, which mutagenic call (Test System: CHINESE HAMSTER V-79, Strain/Indicator: V-79 (HGPRT)/6-THIOGUANINE, Metabolic Activation: NONE, Method: STANDARD PLATE) is on record?
**A.** inactive; negative
